Where two headings read alike, the source gives them in different places. Each block holds one compound with its values, some of them ahead of it.
Experiments:
[1] = system: PC3 (prostate); assay: cell growth inhibition, dictyostatin analogs, PC3; assay type: cell-based; settings: for GI50: read-out: GI50 PC3
Experimental: (§1) The C(6)- and C(12)-(4-azidobutyl) analogs 1 and 2 as well as triazole 26 and amide 27 were assayed for cell growth inhibition against four cell lines (PC3 (prostate), 1A9 (ovarian), A549 (lung), and DLD1 (colon)) alongside reference samples of synthetic dictyostatin and paclitaxel (Table 1a).

[2] = system: 1A9 (ovarian); assay: cell growth inhibition, dictyostatin analogs, 1A9; assay type: cell-based; settings: for GI50: read-out: GI50 1A9
Experimental: as §1

[3] = system: A549 (lung); assay: cell growth inhibition, dictyostatin analogs, A549; assay type: cell-based; settings: for GI50: Homo sapiens
Experimental: as §1

[4] = system: DLD1 (colon); assay: cell growth inhibition, dictyostatin analogs, DLD1; assay type: cell-based; settings: for GI50: Homo sapiens
Experimental: as §1

[5] = system: PC3 (prostate), 1A9 (ovarian), A549 (lung), and DLD1 (colon) cell lines; assay: cell growth inhibition, dictyostatin analogs, summary over four cell lines; assay type: cell-based
Experimental: as §1

[6] = system: PC3 (prostate); assay: cell growth inhibition, Epo B analogs, PC3; assay type: cell-based; settings: read-out: IC50 PC3 (Prostate)
Experimental: (§2) Compounds 19, 20 and 21 were assayed for cell growth inhibition against four cell lines (PC3 (prostate), MCF7 breast), H522 (lung), and OVCAR8 (ovarian)) alongside reference samples of Epo A, ixabepilone and taxol (Table 1).

[7] = system: MCF7 (breast); assay: cell growth inhibition, Epo B analogs, MCF7; assay type: cell-based
Experimental: as §2

[8] = system: H522 (lung); assay: cell growth inhibition, Epo B analogs, H522; assay type: cell-based
Experimental: as §2

[9] = system: OVCAR8 (ovarian); assay: cell growth inhibition, Epo B analogs, OVCAR8; assay type: cell-based
Experimental: as §2

[10] = literature; cited from earlier work
[11] = Homo sapiens, MCF7, read-out: IC50 MCF7 (Breast)
[12] = Homo sapiens, NCI-H522, read-out: IC50 H522 (Lung)
[13] = Homo sapiens, OVCAR-8, read-out: IC50 OVCAR8 (Ovarian)
[14] = Homo sapiens, MCF7 (Breast) cell line, read-out: IC50 MCF7 (Breast)
[15] = Homo sapiens, NCI-H522, H522 (Lung) cell line, read-out: IC50 H522 (Lung)
[16] = Homo sapiens, OVCAR-8, OVCAR8 (Ovarian) cell line, read-out: IC50 OVCAR8 (Ovarian)

Compound: C=C/C=C\[C@H](C)[C@@H]1OC(=O)/C=C\C=C\[C@@H](CCCCn2nnc3c2CC[C@@H]2[C@@H](CO)[C@@H]2CC3)[C@@H](O)C[C@H](O)/C=C\[C@H](C)[C@H](O)[C@@H](C)C[C@@H](C)CC[C@@H](O)[C@@H]1C [triazole 26]
activity relative to azide 1 ([1]; PC3 cell line): only slightly diminished from that of azide 1
GI50 ([1]; Prostate cell): 4.8 nM
activity relative to azide 1 ([2]; 1A9 cell line): only slightly diminished from that of azide 1
GI50 [2]: 8.4 nM
activity relative to azide 1 ([3]; A549 cell line): more substantial (though not catastrophic) reductions in potency
GI50 ([3]; A549, read-out: GI50 A549): 25 nM
activity relative to azide 1 ([4]; DLD1 cell line): more substantial (though not catastrophic) reductions in potency
GI50 ([4]; DLD-1, read-out: GI50 DLD1): 13 nM

Compound: C=C/C=C\[C@H](C)[C@@H]1OC(=O)/C=C\C=C\[C@@H](CCCCN=[N+]=[N-])[C@@H](O)C[C@H](O)/C=C\[C@H](C)[C@H](O)[C@@H](C)C[C@@H](C)CC[C@@H](O)[C@@H]1C [C(6) analog 1]
GI50 ([1]; Prostate cell): 1.9 nM
GI50 [2]: 2.2 nM
GI50 ([3]; A549, read-out: GI50 A549): 1.1 nM
GI50 ([4]; DLD-1, read-out: GI50 DLD1): 1.1 nM
GI50 values relative to dictyostatin ([5]; four cell lines): only slightly attenuated relative to dictyostatin

Compound: CC(=O)NCCCC[C@H]1C(=O)C(C)(C)[C@@H](O)CC(=O)O[C@H](/C(C)=C/c2csc(C)n2)C[C@@H]2OC2(C)CCC[C@H](C)[C@@H]1O (stereo partly drawn) [Compound 21]
IC50 ([6]; Prostate cell): 1 nM
IC50 [7, 11]: ≤ 0.65 nM
IC50 [8, 12]: 0.6 nM
IC50 [9, 13]: 2.2 nM

Compound: C(6)-epi dictyostatin
potency relative to the natural product dictyostatin, in words [10]: as potent as the natural product

IC50 ([6]; PC3 (Prostate) cell line): 4 nM
IC50 [7, 14]: 2 nM
IC50 [8, 15]: 2.5 nM
IC50 [9, 16]: 3.3 nM
Compound: C/C(=C\c1csc(C)n1)[C@@H]1C[C@@H]2O[C@]2(C)CCC[C@H](C)[C@H](O)[C@@H](C)C(=O)C(C)(C)[C@@H](O)CC(=O)N1 [Ixabepilone]

Compound: C=C/C=C\[C@H](C)[C@@H]1OC(=O)/C=C\C=C\[C@@H](C)[C@@H](O)C[C@H](O)/C=C\[C@H](C)[C@H](O)[C@@H](C)C[C@@H](C)CC[C@@H](O)[C@@H]1C [dictyostatin]
GI50 ([1]; Prostate cell): 1.3 nM
GI50 [2]: 0.8 nM
GI50 ([3]; A549, read-out: GI50 A549): 0.3 nM
GI50 ([4]; DLD-1, read-out: GI50 DLD1): 0.4 nM

Compound: C/C(=C\c1csc(C)n1)[C@@H]1C[C@@H]2OC2(C)CCC[C@H](C)[C@H](O)[C@@H](CCCCN=[N+]=[N-])C(=O)C(C)(C)[C@@H](O)CC(=O)O1 (stereo partly drawn) [Compound 19]
IC50 ([6]; Prostate cell): 2.1 nM
IC50 [7, 11]: < 0.65 nM
IC50 [8, 12]: 0.4 nM
IC50 [9, 13]: 1 nM

Compound: C(6)-normethyl dictyostatin
loss of potency relative to the natural product dictyostatin [10]: ≤ 1 order of magnitude

Compound: C=C/C=C\[C@H](C)[C@@H]1OC(=O)/C=C\C=C\[C@@H](CCCCNC(C)=O)[C@@H](O)C[C@H](O)/C=C\[C@H](C)[C@H](O)[C@@H](C)C[C@@H](C)CC[C@@H](O)[C@@H]1C [amide 27]
GI50 ([1]; Prostate cell): 50 nM
GI50 [2]: 30 nM
GI50 ([3]; A549, read-out: GI50 A549): 22 nM
GI50 ([4]; DLD-1, read-out: GI50 DLD1): 32 nM
reduction in potency relative to azide 1 ([5]; against all four cell lines): 1-2 orders of magnitude

Compound: C/C(=C\c1csc(C)n1)[C@@H]1C[C@@H]2O[C@@H]2CCC[C@H](C)[C@H](O)[C@@H](C)C(=O)C(C)(C)[C@@H](O)CC(=O)O1 [Epo A, epothilone A]
IC50 ([6]; PC3 (Prostate) cell line): 7 nM
IC50 ([7]; MCF7 (Breast) cell line, read-out: IC50 MCF7 (Breast)): 7 nM
IC50 ([8]; H522 (Lung) cell line, read-out: IC50 H522 (Lung)): 5.5 nM
IC50 ([9]; OVCAR8 (Ovarian) cell line, read-out: IC50 OVCAR8 (Ovarian)): 6 nM

IC50 ([6]; PC3 (Prostate) cell line): 6 nM
IC50 [7, 14]: < 0.13 nM
IC50 [8, 15]: 2.6 nM
IC50 [9, 16]: 1.9 nM
GI50 ([1]; PC3 (Prostate) cell line): 1.9 nM
GI50 ([3]; A549 (lung) cell line, read-out: GI50 A549): 1.2 nM
GI50 ([4]; DLD-1, DLD1 (colon) cell line, read-out: GI50 DLD1): 15 nM
Compound: CC(=O)O[C@H]1C(=O)[C@@]2(C)[C@H]([C@H](OC(=O)c3ccccc3)[C@]3(O)C[C@H](OC(=O)[C@H](O)[C@@H](NC(=O)c4ccccc4)c4ccccc4)C(C)=C1C3(C)C)[C@]1(OC(C)=O)CO[C@@H]1C[C@@H]2O [Taxol, paclitaxel, reference compound]
GI50 ([2]; 1A9 (ovarian) cell line): 0.4 nM

— patent US10683288B2, “Epothilone B and dictyostatin analogs, their preparation and use” (The Trustees of Columbia University in the City of New York, priority 2015, dated 2020)
